Biological target: T1, PDE6 (from bovine retina) (Bos taurus, UniProt P11541+P23439)
T1 construct: PDE6 can be purified from bovine retina; from tissue; host or cells: bovine retina
T1 sequence (P11541 2-856 limits assumed): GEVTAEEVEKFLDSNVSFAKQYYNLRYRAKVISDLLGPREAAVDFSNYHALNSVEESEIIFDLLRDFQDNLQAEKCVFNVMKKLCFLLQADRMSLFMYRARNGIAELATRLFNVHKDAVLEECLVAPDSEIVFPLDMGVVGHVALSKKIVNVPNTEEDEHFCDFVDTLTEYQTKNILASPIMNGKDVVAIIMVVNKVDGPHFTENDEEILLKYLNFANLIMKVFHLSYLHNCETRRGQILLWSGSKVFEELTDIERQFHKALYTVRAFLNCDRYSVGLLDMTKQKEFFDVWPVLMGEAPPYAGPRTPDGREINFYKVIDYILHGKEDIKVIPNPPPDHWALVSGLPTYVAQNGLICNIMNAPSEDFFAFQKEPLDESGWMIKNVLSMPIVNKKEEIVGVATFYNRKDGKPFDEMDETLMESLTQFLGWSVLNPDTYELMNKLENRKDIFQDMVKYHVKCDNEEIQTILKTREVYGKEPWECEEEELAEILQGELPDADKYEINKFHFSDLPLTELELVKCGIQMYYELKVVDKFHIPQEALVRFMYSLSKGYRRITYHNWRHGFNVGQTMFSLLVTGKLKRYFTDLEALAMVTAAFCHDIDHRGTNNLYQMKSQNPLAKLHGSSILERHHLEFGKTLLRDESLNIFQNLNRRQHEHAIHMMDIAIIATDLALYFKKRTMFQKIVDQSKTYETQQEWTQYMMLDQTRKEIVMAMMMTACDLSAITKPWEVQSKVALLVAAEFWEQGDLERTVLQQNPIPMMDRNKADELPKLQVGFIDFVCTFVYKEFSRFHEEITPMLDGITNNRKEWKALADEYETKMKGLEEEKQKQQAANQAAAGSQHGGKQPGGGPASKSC
T1 sequence (P23439 2-850 limits assumed): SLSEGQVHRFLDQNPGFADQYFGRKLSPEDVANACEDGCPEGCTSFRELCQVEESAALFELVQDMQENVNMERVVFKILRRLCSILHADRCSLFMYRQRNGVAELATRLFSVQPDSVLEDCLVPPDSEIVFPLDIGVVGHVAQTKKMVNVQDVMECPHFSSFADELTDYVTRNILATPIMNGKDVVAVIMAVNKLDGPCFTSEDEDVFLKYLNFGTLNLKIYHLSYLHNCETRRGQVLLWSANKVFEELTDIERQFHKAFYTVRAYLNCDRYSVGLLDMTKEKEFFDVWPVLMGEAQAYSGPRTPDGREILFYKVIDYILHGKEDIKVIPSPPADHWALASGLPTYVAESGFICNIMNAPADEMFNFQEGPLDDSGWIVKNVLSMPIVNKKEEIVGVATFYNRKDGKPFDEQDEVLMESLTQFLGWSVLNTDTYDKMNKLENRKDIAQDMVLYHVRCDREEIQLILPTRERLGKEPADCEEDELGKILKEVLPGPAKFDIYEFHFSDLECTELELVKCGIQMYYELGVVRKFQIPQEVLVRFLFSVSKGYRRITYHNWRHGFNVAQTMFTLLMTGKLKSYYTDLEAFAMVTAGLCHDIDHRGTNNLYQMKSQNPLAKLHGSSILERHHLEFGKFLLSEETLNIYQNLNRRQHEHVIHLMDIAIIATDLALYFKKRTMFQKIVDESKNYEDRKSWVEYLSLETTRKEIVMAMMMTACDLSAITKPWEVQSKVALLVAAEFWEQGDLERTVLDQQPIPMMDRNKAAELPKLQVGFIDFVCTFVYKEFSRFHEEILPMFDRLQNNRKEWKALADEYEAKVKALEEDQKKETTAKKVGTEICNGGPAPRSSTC
Test: Inhibition of PDE6 activity (FP or SPA assays)
Type: biochemical
Settings: selectivity PDE4B over PDE6
Excerpt: PDE6 can be purified from bovine retina as described by: P. Catty and P. Deterre, “Activation and solubilization of the retinal cGMP-specific phosphodiesterase by limited proteolysis”, Eur. J. Biochem., 1991, 199, 263-269; A. Tar et al. “Purification of bovine retinal cGMP phosphodiesterase”, Methods in Enzymology, 1994, 238, 3-12; and/or D. Srivastava et al. “Effects of magnesium on cyclic GMP hydrolysis by the bovine retinal rod cyclic GMP phosphodiesterase”, Biochem. J, 1995, 308, 653-658.
The ability of compounds to inhibit catalytic activity at PDE4B or 4D (human recombinant), PDE3 (from bovine aorta), PDE5 (human recombinant) or PDE6 (from bovine retina) can optionally be determined by Scintillation Proximity Assay (SPA) in a 96-well format.
Test compounds (as a solution in DMSO, suitably about 2 microlitre (ul) volume of DMSO solution) are preincubated at ambient temperature (room temperature, e.g. 19-23° C.) in Wallac Isoplates (code 1450-514) with PDE enzyme in 50 mM Tris-HCl buffer pH 7.5, 8.3 mM MgCl2, 1.7 mM EGTA, 0.05% (w/v) bovine serum albumin for 10-30 minutes (usually 30 minutes). The enzyme concentration is adjusted so that no more than 20% hydrolysis of the substrate defined below occurs in control wells without compound, during the incubation. […] Bound radioactive product is measured using a WALLAC TRILUX 1450 Microbeta scintillation counter. […]

Structure (SMILES): CCc1nc2c(cnn2CC)c(NC2CCOCC2)c1CNC(=O)c1ccc(NC(=O)CCCCCCCN(C)CCO)cc1 [Example 1B, N-{[1,6-diethyl-4-(tetrahydro-2H-pyran-4-ylamino)-1H-pyrazolo[3,4-b]pyridin-5-yl]methyl}-4-({8-[(2-hydroxyethyl)(methyl)amino]octanoyl}amino)benzamide]
- PDE4B inhibition compared with PDE6 inhibition (pIC50 values): inhibit PDE4B more strongly than they inhibit PDE3, PDE5 and PDE6
